Test results as given in the supplement of paper PMC10307832.

Assays:
Assay in all cases: relative viability (nuclei count vs DMSO), 5 days (fraction); higher = more cells survive
[1] = compound: COC1=CC=C(C=C1)CN2C=CC3=C2C=C(C=C3)C(=O)NO + CS(=O)(=O)CCNCc1ccc(-c2ccc3ncnc(Nc4ccc(OCc5cccc(F)c5)c(Cl)c4)c3c2)o1 [Lapatinib] (partner 2 µM)
Method in brief: (§1)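 A single step with final 0.05% Triton X-100, 1% formaldehyde and 1 ug/ml Hoechst fixed the cells and stained nuclei 5 days after treatment. Lung cancer cell lines in 1536-well plates had been treated by pin tool the day after seeding with one drug alone or a fixed anchor-drug dose plus five library-drug doses (not always all listed) in √10 steps, and nuclei were counted on 4× images. Relative viability is the ratio of nuclei in treated wells to nuclei in vehicle wells, taken as the median of duplicate plates.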

Veliparib + Palbociclib = compound: C[C@]1(c2nc3c(C(N)=O)cccc3[nH]2)CCCN1 [Veliparib] + CC(=O)c1c(C)c2cnc(Nc3ccc(N4CCNCC4)cn3)nc2n(C2CCCC2)c1=O [Palbociclib] (partner 0.5 µM)
Method in brief: as §1

Veliparib + Luminespib = compound: C[C@]1(c2nc3c(C(N)=O)cccc3[nH]2)CCCN1 [Veliparib] + CCNC(=O)c1noc(-c2cc(C(C)C)c(O)cc2O)c1-c1ccc(CN2CCOCC2)cc1 [Luminespib] (partner 0.01 µM)
Method in brief: as §1

Veliparib + Phenformin = compound: C[C@]1(c2nc3c(C(N)=O)cccc3[nH]2)CCCN1 [Veliparib] + N=C(N)NC(=N)NCCc1ccccc1 [Phenformin] (partner 250 µM)
Method in brief: as §1

Row | Cell Line | relative viability ([1]; first compound 0.08 µM) | relative viability ([1]; first compound 0.253 µM) | relative viability ([1]; first compound 0.8 µM) | relative viability ([1]; first compound 2.53 µM) | relative viability ([1]; first compound 8 µM) | relative viability (Veliparib + Palbociclib; first compound 0.06325 µM) | relative viability (Veliparib + Palbociclib; first compound 0.2 µM) | relative viability (Veliparib + Palbociclib; first compound 0.6325 µM) | relative viability (Veliparib + Palbociclib; first compound 2 µM) | relative viability (Veliparib + Luminespib; first compound 0.02 µM) | relative viability (Veliparib + Luminespib; first compound 0.06325 µM) | relative viability (Veliparib + Luminespib; first compound 0.2 µM) | relative viability (Veliparib + Luminespib; first compound 0.6325 µM) | relative viability (Veliparib + Luminespib; first compound 2 µM) | relative viability (Veliparib + Phenformin; first compound 0.02 µM) | relative viability (Veliparib + Phenformin; first compound 0.06325 µM) | relative viability (Veliparib + Phenformin; first compound 0.2 µM) | relative viability (Veliparib + Phenformin; first compound 0.6325 µM) | relative viability (Veliparib + Phenformin; first compound 2 µM) | relative viability (Veliparib + Palbociclib; first compound 0.02 µM)
1 | EKVX | 0.166 | 0.18 | 0.185 | 0.203 | 0.225 | 0.42 | 0.403 | 0.373 | 0.383 | 0.82 | 0.835 | 0.89 | 0.812 | 0.827 | 0.194 | 0.162 | 0.249 | 0.221 | 0.222 | –
2 | LU99A | – | 0.92 | 0.961 | 0.957 | 0.891 | 0.399 | 0.418 | 0.381 | 0.451 | 0.284 | 0.25 | 0.191 | 0.228 | 0.237 | 0.928 | 0.838 | 0.612 | 0.75 | 0.976 | 0.495
3 | NCI-H520 | 0.425 | 0.891 | 0.943 | 0.886 | 0.803 | 0.239 | 0.254 | 0.212 | 0.223 | 0.224 | 0.239 | 0.221 | 0.205 | 0.247 | 0.709 | 0.558 | 0.761 | 0.538 | 0.578 | 0.24
4 | COR-L23 | 0.736 | 1.07 | 0.937 | 1.02 | 0.84 | 0.237 | 0.252 | 0.25 | 0.27 | 0.696 | 0.523 | 0.558 | 0.538 | 0.433 | 0.409 | 0.373 | 0.4 | 0.407 | 0.425 | 0.27
5 | NCI-H1437 | 0.23 | 0.84 | 0.877 | 0.886 | 0.8 | 0.323 | 0.281 | 0.362 | 0.335 | 0.978 | 1.1 | 1.07 | 1.1 | 1.09 | 0.311 | 0.237 | 0.357 | 0.253 | 0.299 | 0.304
6 | HARA | 0.424 | 0.891 | 0.815 | 0.712 | 0.679 | 0.174 | 0.308 | 0.327 | 0.265 | 0.82 | 0.778 | 0.782 | 0.639 | 0.416 | 0.412 | 0.399 | 0.48 | 0.409 | 0.474 | 0.352
7 | NCI-H1666 | 0.428 | 0.778 | 0.821 | 0.649 | 0.716 | 0.606 | 0.644 | 0.655 | 0.654 | 1.01 | 0.984 | 0.968 | 0.941 | 0.982 | 0.546 | 0.507 | 0.544 | 0.487 | 0.534 | 0.574
8 | CAL-12T | 0.215 | – | 0.715 | 0.755 | 0.605 | 0.301 | 0.402 | 0.382 | 0.58 | 0.348 | 0.147 | 0.522 | 0.266 | 0.155 | 0.436 | 0.617 | 0.537 | 0.54 | 0.53 | 0.179
9 | NCI-H1975 | 0.691 | 0.845 | 0.832 | 0.875 | 0.78 | 0.544 | 0.513 | 0.543 | 0.535 | 0.118 | 0.233 | 0.142 | 0.31 | 0.18 | 0.434 | 0.395 | 0.407 | 0.368 | 0.397 | 0.533
10 | NCI-H460 | 0.118 | 1.04 | 0.953 | 0.907 | 0.931 | 0.092 | 0.11 | 0.121 | 0.131 | 0.0408 | 0.0256 | 0.0384 | 0.0245 | 0.0352 | 0.361 | 0.491 | 0.484 | 0.489 | 0.52 | 0.147
11 | NCI-H2170 | 0.187 | 0.282 | 0.26 | 0.27 | 0.245 | 0.446 | 0.435 | 0.386 | 0.399 | 0.681 | 0.865 | 0.719 | 0.732 | 0.6 | 0.472 | 0.41 | 0.415 | 0.401 | 0.459 | 0.43
12 | NCI-H1355 | 0.247 | 1.1 | 0.959 | 0.978 | 0.934 | 0.396 | 0.375 | 0.417 | 0.402 | – | 0.543 | 0.664 | 0.658 | 0.62 | – | 0.425 | 0.46 | 0.423 | 0.442 | 0.305
13 | NCI-H1755 | 0.715 | 1.07 | 1 | 1.01 | 1.02 | 0.469 | 0.442 | 0.455 | 0.395 | 0.551 | 0.553 | 0.41 | 0.357 | 0.36 | 0.637 | 0.629 | 0.631 | 0.518 | 0.608 | 0.46
14 | NCI-H2405 | 0.523 | 1.03 | 1.11 | 1.17 | 0.871 | – | 0.569 | 0.504 | 0.503 | 0.695 | 0.609 | 0.771 | 0.666 | 0.711 | 0.388 | 0.371 | 0.411 | 0.393 | 0.308 | 0.529
15 | NCI-H2085 | 0.336 | 0.817 | 0.798 | 0.81 | 0.708 | 0.476 | 0.477 | 0.471 | 0.479 | – | 0.438 | 0.426 | 0.273 | 0.447 | – | 0.734 | 0.795 | 0.652 | 0.699 | 0.454
16 | LXF-289 | 0.301 | 0.921 | 0.878 | 0.926 | 0.883 | 0.574 | 0.554 | 0.601 | 0.649 | 0.652 | 0.712 | 0.759 | 0.545 | 0.601 | 0.521 | 0.52 | 0.533 | 0.499 | 0.539 | 0.577
